Data set [1] has as its target T1, SOD1-A4V-Halo (Homo sapiens, UniProt P00441, A5V). The data set can be described thus: Two-color imaging of SOD1-A4V-Halo in HEK293T cells under MG132. The class given is cell-based. Set-up: expressed in transfected cells; host or cells: HEK293T. The conditions noted are these: 4 and 5 both at 0.5 μM, 5 μM MG132 for 8 h. The text has this:
(§1) (B-C) Excitation and emission spectra of 4 (with misfolded oligomers of SOD1-A4V-Halo) and 5 (with insoluble aggregates of SOD1-A4V-Halo).
(§2) Combination of 4 and 5 enables a two-color imaging strategy to differentiate insoluble aggregates from soluble oligomers. The inventors carried out live cell imaging experiments, wherein 4 or 5 was used to visualize aggregation of POI-Halo fusion proteins in HEK293T cells. […] To this end, the inventors labeled HEK293T cells expressing SOD1-A4V-Halo simultaneously with 4 and 5 (both at 0.5 μM) for 24 h and treated cells with 5 μM MG132 for 8 h. […] The inventors further carried out experiments using Htt-PolyQ with 110 glutamine repeats (Htt-110Q-Halo).
Target sequence in this assay (P00441 with tags, fused parts or gaps A5V limits assumed): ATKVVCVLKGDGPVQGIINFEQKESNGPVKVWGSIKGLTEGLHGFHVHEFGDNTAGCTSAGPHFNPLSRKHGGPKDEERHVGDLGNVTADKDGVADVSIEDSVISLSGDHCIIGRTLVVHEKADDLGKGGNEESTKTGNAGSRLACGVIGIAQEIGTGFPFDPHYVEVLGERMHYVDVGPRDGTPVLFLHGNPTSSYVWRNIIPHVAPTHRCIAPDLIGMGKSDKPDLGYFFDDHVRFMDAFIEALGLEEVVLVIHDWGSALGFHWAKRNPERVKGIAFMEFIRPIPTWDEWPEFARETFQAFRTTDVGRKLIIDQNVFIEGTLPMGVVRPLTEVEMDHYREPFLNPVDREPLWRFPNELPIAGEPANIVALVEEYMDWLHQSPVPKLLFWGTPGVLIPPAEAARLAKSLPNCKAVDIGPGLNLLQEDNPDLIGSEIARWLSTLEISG

The target in data set [2] is T2, Htt-110Q-Halo (Homo sapiens, UniProt P42858).
T2 construct: using the Huntingtin exon 1 protein (Htt) with expansion of a polyglutamine tract within its N-terminal domain; expressed in transfected cells; host or cells: HEK293T
Kind of data set: Two-color imaging of Htt-110Q-Halo in HEK293T cells. It is filed as cell-based.
Text: as §1, §2

Data set [3] has as its system Htt-110Q-Halo. Described as above. The conditions noted are these: control. The class given is cell-based, human.
Text: as §1, §2

In data set [4] the target is T1, SOD1-A4V-Halo. The data set can be described thus: In vitro heat-induced aggregation of SOD1-A4V-Halo conjugates. It is filed as biochemical.
Text: as §1
Target sequence in this assay (P00441 with tags, fused parts or gaps A5V): as the sequence (P00441 with tags, fused parts or gaps A5V limits assumed) above
The inventors installed Halo-tag reactive warhead to 2, resulting in 5.

Setting [5] is: 4 with misfolded oligomers, 5 with insoluble aggregates of SOD1-A4V-Halo.

T2 sequence (P42858 with tags, fused parts or gaps): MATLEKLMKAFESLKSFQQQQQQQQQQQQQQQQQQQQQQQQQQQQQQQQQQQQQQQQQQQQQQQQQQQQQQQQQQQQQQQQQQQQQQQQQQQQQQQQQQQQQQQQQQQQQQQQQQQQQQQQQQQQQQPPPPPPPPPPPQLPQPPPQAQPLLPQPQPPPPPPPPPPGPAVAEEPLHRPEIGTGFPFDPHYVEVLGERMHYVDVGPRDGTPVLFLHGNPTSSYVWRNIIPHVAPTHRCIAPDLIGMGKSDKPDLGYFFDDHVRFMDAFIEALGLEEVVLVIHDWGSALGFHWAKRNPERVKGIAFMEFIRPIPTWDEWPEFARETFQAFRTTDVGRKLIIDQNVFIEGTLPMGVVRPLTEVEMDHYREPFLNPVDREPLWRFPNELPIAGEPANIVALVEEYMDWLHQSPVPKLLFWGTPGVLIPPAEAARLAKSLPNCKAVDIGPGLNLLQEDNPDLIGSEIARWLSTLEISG

Turning to `CC1=N/C(=C\c2ccc(N(C)C)cc2)C(=O)N1CC(=O)N[C@H]1CC[C@H](C(=O)NCCOCCOCCCCCCCl)CC1` [Compound 5], the “fluorescence of perinuclear SOD1 A4V-Halo granules” value on SOD1-A4V-Halo [1] is listed as “dark fluorescence to a background level”. The “fluorescence of Htt-110Q-Halo inclusions” value on Htt-110Q-Halo [2] was “exhibit fluorescence from both 4 and 5”. The “fluorescence in cells co-expressing Halo-tag and Htt-110Q-mCherry” value with Htt-110Q-Halo [3] is recorded as “fluorescence was not observed”. The molar extinction coefficient on SOD1-A4V-Halo [4] is given as 23,716 M^−1·cm^−1. Further, at SOD1-A4V-Halo [4] (setting [5]), the Em turned out to be 520 nm and the Ex is 450 nm.

The record behind these values is patent US20210094922A1, “Dyes for Analysis of Soluble Protein Aggregates or Misfolded Protein Oligomers” (The Penn State Research Foundation, priority 2018, published 2021).
